# Results taken from PMC8160450, “GRK Inhibition Potentiates Glucagon-Like Peptide-1 Action” (Frontiers in Endocrinology, 2021).
# No end group written: not given here.
# Experiments:
# Assay type in all cases: cell-based
# [1] = system: β-arrestin recruitment to the GLP-1R; experiment: GLP-1 mediated β-arrestin recruitment assay (PathHunter eXpress GLP1R CHO-K1 β-Arrestin cells); conditions: CHO-K1 cells stably expressing human GLP-1 receptor and β-arrestin
# Description: PathHunter® eXpress GLP1R CHO-K1 β-Arrestin cells were plated at 6000 cells/well in a 384-well, PDL, white and opaque plate in F12 medium containing 10% FBS, 0.3 mg/ml hygromycin, and 0.8 mg/ml G418. The plate was incubated for two days in a humidified incubator at 37°C and 5% CO2 prior to the experiment. On the day of the exeperiment, the cells were washed once with the Assay Buffer (HBSS with calcium and magnesium, 20 mM Hepes, and 0.1% fatty-acid free BSA) followed by a 10 minute preincubation with GRK inhibitors or vehicle (DMSO) at the indicated concentrations. The final DMSO concentration was 0.1%. GLP-1 was added to the indicated concentrations, and incubation was continued for an additional 90 minutes at 37°C. The detection reagent was then added the cells, followed by a 60 minute incubation at the room temperature. The plate was read on MicroBeta LumiJet (PerkinElmer, Waltham, MA). In this cellular system, the GLP-1 receptor is fused in frame with the small enzyme fragment of ProLinkTM and co-expressed in cells expressing a fusion of the larger deletion mutant of β-gal, also called enzyme acceptor. […] The cellular β-gal enzyme activity is measured using chemiluminescent detection reagents.
# [2] = system: INS-1 832/13 cells; experiment: GLP-1 mediated insulin secretion in INS-1 832/13 cells; conditions: GLP-1 at 10 nM, 5 mM glucose
# Description: INS-1 832/13 cells were cultured in medium composed of RPMI 1640 medium supplemented with 10% fetal bovine serum, 50 IU/mL penicillin, 50 mg/L streptomycin, 10 mM HEPES, 2 mM L-glutamine, 1 mM sodium pyruvate, and 50 µM beta-mercaptoethanol. Cells were split twice a week, grown in a 37°C incubator under a humidified atmosphere containing 5% CO2 and plated at (60,000 cells/well) in a 96-well plate, two days prior to the experiment. Cells were washed twice with glucose-free Krebs-Ringer Bicarbonate buffer (KRB) (116 mM NaCl, 1.8 mM CaCl2, 0.8 mM MgSO4, 5.4 mM KCl, 1 mM NaH2PO4, 26 mM NaHCO3, and 0.2% fatty-acid free BSA, pH 7.4) followed by preincubation for 1 h at 37°C in glucose-free KRB and the indicated concentration of GRK compounds or vehicle (DMSO) were added. The final DMSO concentration was 0.1%. After 30 min incubation at 37°C, 2 mM or 5 mM glucose and 10 nM GLP-1 were added to the wells for a final volume of 200 μL. After further incubation for 1 hour at 37°C, 20 μL of the culture supernatant was diluted 1:15 in the Dilution Buffer provided in the Insulin High Range Assay HTRF Kit (Cisbio, Bedford, MA). Insulin was detected using the Insulin High Range Assay HTRF Kit according to the manufacturer’s instructions (Cisbio, Bedford, MA). All results were obtained in 5 replicates.
# [3] = system: mouse pancreatic islets; experiment: Glucose stimulated insulin secretion (GSIS) in isolated mouse pancreatic islets; conditions: 20 nM GLP-1, 2 mM glucose
# Description: Islets were isolated from mouse pancreas by collagenase digestion ([20]). The collagenase was dissolved in Hanks’ balanced salt solution (Invitrogen, Carlsbad, CA) containing 10 µg/ml DNase I (Roche Diagnostics, Indianapolis, IN) and 0.2% BSA, and was subsequently injected into the common bile duct. The pancreas was removed and incubated at 37°C for 20 min and washed three times with Hanks’ balanced salt solution and islets were collected under a microscope. Purified islets were used after an overnight incubation in RPMI 1640 medium containing 5.5 mmol/l glucose and 10% fetal bovine serum in a humidified atmosphere containing 5% CO2/95% air at 37°C. A group of 7 islets was preincubated in Krebs Ringer bicarbonate buffer (KRBH) containing 0.2% BSA and 2 mM glucose for 40 min at 37°C. The indicated concentration of GRK compounds or vehicle (DMSO) were added. The final DMSO concentration was 0.1%. After 30 min incubation at 37°C, 2 mM or 10 mM glucose along with 20 nM GLP-1 were added to wells. After further incubation for 1 hour at 37°C with shaking, culture supernatant was collected, and insulin was detected using the Insulin High Range Assay HTRF Kit according to the manufacturer’s instructions (Cisbio, Bedford, MA).
substance,measurement,setting,value
"Human GLP-1 (7-36) amide (HAEGTFTSDVSSYLEGQAAKEFIAWLVKGR-NH2; UniProt P01275 98-127, looked up, fragment)",EC80 for increase of cellular β-gal enzyme activity (β-arrestin recruitment),[1],approximately 100 nM
same,insulin secretion,[2],stimulated insulin secretion
same,"insulin secretion at 2 mM glucose, GLP-1 alone",[3],did not stimulate insulin secretion
